Reference: ChEMBL document CHEMBL2203257 (Bioorg Med Chem Lett, 2012)

Assays:
[1] = target: Mitogen-activated protein kinase 14 (Homo sapiens, UniProt Q16539); assay: Inhibition of MAPK14
[2] = target: Tyrosine-protein kinase ITK/TSK (Homo sapiens, UniProt Q08881); assay: Inhibition of ITK
[3] = target: Serine/threonine-protein kinase B-raf (Homo sapiens, UniProt P15056); assay: Inhibition of BRAF
Ephrin type-B receptor 2 = Ephrin type-B receptor 2 (Homo sapiens, UniProt P29323); assay: Inhibition of EPHB2
[4] = target: Serine/threonine-protein kinase SIK2 (Homo sapiens, UniProt Q9H0K1); assay: Inhibition of SIK2
[5] = target: Mitogen-activated protein kinase kinase kinase 5 (Homo sapiens, UniProt Q99683); assay: Inhibition of MAP3K5
[6] = target: Epithelial discoidin domain-containing receptor 1 (Homo sapiens, UniProt Q08345); assay: Inhibition of DDR1
Chain of Epithelial discoidin domain-containing receptor 1 (Q08345 whole entry, the tested form may be a part): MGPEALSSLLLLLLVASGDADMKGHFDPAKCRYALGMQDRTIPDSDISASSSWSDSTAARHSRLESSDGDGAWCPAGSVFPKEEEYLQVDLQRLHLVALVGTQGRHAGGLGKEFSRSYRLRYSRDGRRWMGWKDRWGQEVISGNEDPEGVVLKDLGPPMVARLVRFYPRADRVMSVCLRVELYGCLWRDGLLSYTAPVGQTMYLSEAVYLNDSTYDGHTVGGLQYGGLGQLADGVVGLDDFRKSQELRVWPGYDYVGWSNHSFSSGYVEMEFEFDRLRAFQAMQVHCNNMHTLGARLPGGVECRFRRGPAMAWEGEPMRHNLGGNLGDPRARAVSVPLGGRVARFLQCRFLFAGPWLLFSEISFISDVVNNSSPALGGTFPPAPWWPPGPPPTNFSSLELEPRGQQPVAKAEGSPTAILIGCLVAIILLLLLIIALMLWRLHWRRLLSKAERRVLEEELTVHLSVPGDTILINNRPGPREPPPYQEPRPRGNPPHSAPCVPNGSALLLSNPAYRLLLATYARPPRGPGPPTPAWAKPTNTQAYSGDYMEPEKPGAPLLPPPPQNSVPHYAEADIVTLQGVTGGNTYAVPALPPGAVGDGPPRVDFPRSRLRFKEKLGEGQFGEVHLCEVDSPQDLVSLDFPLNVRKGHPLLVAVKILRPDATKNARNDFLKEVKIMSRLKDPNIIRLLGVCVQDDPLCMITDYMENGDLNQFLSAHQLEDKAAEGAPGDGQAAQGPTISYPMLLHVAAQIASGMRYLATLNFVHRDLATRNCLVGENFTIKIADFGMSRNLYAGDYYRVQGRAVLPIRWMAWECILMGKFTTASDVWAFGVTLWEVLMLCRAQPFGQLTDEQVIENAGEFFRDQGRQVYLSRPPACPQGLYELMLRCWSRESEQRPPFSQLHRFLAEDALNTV

Ephrin type-A receptor 2 = Ephrin type-A receptor 2 (Homo sapiens, UniProt P29317); assay: Inhibition of EPHA2
Chain of Ephrin type-A receptor 2 (P29317 whole entry): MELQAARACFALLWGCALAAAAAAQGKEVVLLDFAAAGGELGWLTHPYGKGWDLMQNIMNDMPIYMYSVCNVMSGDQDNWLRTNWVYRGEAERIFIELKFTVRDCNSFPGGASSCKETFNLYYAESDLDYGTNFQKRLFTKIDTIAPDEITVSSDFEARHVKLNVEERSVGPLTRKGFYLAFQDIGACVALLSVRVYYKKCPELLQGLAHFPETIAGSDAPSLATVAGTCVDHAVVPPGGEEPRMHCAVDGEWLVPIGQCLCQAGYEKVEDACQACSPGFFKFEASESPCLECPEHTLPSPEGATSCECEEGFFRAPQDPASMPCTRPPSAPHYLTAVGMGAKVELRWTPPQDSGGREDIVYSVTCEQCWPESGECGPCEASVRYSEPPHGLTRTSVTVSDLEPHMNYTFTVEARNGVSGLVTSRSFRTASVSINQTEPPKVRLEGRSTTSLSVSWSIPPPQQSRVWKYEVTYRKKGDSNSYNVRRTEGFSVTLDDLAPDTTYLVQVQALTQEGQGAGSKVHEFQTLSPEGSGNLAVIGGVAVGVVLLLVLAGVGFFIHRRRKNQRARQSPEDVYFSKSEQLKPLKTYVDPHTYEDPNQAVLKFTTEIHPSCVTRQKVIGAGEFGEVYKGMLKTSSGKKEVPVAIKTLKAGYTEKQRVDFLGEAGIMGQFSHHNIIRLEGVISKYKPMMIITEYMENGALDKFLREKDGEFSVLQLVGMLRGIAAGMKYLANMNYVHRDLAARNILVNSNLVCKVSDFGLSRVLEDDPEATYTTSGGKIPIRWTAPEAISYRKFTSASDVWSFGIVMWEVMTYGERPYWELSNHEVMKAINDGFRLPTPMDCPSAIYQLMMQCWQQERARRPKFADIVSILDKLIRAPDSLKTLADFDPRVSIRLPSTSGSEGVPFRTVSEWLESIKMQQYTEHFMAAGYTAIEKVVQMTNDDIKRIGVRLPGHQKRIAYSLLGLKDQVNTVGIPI

[7] = Cmax in mouse at 3 mg/kg, po BID; assay type: ADME, organism-based; set-up: dose 3 mg/kg, route oral; conditions: in vivo
[8] = target: Calcium/calmodulin-dependent protein kinase kinase 2 (Homo sapiens, UniProt Q96RR4); assay: Inhibition of CAMKK2
[9] = target: Tyrosine-protein kinase Lck (Homo sapiens, UniProt P06239); assay: Inhibition of LCK
LIM domain kinase 1 = LIM domain kinase 1 (Homo sapiens, UniProt P53667); assay: Inhibition of LIMK1
Chain of LIM domain kinase 1 (P53667 whole entry, the tested form may be a part): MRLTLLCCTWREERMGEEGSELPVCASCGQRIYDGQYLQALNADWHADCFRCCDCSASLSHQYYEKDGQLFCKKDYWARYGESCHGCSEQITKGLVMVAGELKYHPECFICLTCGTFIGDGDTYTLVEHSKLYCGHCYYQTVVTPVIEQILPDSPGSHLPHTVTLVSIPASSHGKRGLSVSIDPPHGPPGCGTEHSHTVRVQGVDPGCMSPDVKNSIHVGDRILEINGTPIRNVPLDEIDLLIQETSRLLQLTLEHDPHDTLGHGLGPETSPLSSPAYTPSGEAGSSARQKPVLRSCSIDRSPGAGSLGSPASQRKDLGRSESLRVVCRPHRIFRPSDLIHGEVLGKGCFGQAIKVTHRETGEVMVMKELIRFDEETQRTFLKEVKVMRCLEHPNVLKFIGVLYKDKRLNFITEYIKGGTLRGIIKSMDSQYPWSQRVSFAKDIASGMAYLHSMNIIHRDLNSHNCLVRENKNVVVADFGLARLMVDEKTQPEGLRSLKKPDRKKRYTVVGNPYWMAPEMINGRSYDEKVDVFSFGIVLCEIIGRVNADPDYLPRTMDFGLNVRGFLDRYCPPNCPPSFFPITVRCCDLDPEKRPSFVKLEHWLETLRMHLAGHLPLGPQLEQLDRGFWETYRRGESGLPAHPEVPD

[10] = target: Serine/threonine-protein kinase NLK (Homo sapiens, UniProt Q9UBE8); assay: Inhibition of NLK
[11] = target: Proto-oncogene tyrosine-protein kinase receptor Ret (Homo sapiens, UniProt P07949); assay: Inhibition of RET
[12] = target: Serine/threonine-protein kinase Nek2 (Homo sapiens, UniProt P51955); assay: Inhibition of NEK2
Activin receptor type-2A = Activin receptor type-2A (Homo sapiens, UniProt P27037); assay: Inhibition of ACVR2A
[13] = target: Phosphatidylinositol 4,5-bisphosphate 3-kinase catalytic subunit alpha isoform (Homo sapiens, UniProt P42336); assay: Inhibition of PIK3Ca
Cytochrome P450 2C19 = Cytochrome P450 2C19 (Homo sapiens, UniProt P33261); assay: Inhibition of CYP2C19 at >20 uM; assay type: ADME
[14] = Clearance in cynomolgus monkey; assay type: ADME, organism-based, Macaca fascicularis; conditions: in vivo
[15] = target: Tyrosine-protein kinase FRK (Homo sapiens, UniProt P42685); assay: Inhibition of FRK
[16] = Cmax in mouse at 10 mg/kg, po BID; assay type: ADME, organism-based; set-up: dose 10 mg/kg, route oral; conditions: in vivo
[17] = target: Phosphatidylinositol 3-kinase catalytic subunit type 3 (Homo sapiens, UniProt Q8NEB9); assay: Inhibition of PIK3C3
[18] = Volume of distribution at steady state […] at 5 mg/kg, po; 1 mg/kg, iv; assay type: ADME, organism-based; conditions: read-out: Vdss
[19] = target: Serine/threonine-protein kinase 17B (Homo sapiens, UniProt O94768); assay: Inhibition of STK17B
[20] = target: Serine/threonine-protein kinase TAO1 (Homo sapiens, UniProt Q7L7X3); assay: Inhibition of TAOK1
[21] = target: Phosphatidylinositol 4-kinase beta (Homo sapiens, UniProt Q9UBF8); assay: Inhibition of PIK4Cb
Chain of Phosphatidylinositol 4-kinase beta (Q9UBF8 whole entry): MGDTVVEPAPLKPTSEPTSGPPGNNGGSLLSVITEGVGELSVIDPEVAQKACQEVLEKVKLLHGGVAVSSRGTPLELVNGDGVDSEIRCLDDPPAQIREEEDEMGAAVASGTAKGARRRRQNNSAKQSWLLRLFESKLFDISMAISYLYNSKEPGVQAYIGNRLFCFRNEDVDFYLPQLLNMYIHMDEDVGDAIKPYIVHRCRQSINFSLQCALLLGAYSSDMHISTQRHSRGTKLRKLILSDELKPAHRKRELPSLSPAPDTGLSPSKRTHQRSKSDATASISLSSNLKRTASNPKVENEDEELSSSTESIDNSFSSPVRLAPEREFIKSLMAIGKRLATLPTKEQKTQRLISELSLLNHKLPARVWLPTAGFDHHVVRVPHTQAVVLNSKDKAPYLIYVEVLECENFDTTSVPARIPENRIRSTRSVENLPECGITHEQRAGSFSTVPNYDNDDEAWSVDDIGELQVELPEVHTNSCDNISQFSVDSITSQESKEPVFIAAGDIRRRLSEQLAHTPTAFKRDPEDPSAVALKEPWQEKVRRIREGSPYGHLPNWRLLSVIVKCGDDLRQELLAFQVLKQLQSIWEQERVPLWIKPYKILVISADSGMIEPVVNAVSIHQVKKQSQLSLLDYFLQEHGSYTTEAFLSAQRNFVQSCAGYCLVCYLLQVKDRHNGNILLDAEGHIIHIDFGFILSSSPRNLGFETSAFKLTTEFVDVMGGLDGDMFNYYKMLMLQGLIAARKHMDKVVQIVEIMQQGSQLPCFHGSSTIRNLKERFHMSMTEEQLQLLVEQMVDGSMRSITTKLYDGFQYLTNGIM

[22] = target: Mitogen-activated protein kinase kinase kinase 4 (Homo sapiens, UniProt Q9Y6R4); assay: Inhibition of MAP3K4
[23] = target: Ribosomal protein S6 kinase alpha-5 (Homo sapiens, UniProt O75582); assay: Inhibition of RPS6KA5
[24] = target: 5'-AMP-activated protein kinase catalytic subunit alpha-2 (Homo sapiens, UniProt P54646); assay: Inhibition of PRKAA2
Chain of 5'-AMP-activated protein kinase catalytic subunit alpha-2 (P54646 whole entry): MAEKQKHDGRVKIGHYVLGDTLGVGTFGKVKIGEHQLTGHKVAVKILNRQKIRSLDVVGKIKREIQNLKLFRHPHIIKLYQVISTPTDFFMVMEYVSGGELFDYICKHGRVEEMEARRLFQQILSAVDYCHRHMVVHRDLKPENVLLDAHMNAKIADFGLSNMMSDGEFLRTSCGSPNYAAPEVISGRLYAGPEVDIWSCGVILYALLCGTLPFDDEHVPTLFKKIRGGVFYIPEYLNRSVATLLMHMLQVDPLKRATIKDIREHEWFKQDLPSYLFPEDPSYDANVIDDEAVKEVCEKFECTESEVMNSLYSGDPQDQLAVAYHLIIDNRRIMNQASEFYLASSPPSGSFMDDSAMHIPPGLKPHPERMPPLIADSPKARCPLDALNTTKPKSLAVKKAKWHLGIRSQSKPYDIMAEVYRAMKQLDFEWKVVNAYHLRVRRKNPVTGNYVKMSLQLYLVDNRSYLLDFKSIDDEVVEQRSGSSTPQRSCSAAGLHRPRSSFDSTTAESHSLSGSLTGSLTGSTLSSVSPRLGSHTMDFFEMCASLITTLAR

[25] = target: Calcium/calmodulin-dependent protein kinase type II subunit delta (Homo sapiens, UniProt Q13557); assay: Inhibition of CAMK2D
[26] = target: Protein kinase C theta type (Homo sapiens, UniProt Q04759); assay: Inhibition of PRKCQ
[27] = target: Mitogen-activated protein kinase kinase kinase 1 (Homo sapiens, UniProt Q13233); assay: Inhibition of MAP3K1
[28] = target: Receptor-interacting serine/threonine-protein kinase 2 (Homo sapiens, UniProt O43353); assay: Inhibition of RIPK2
[29] = target: Eukaryotic translation initiation factor 2-alpha kinase 1 (Homo sapiens, UniProt Q9BQI3); assay: Inhibition of EIF2AK1
[30] = target: Phosphatidylinositol 4,5-bisphosphate 3-kinase catalytic subunit gamma isoform (Homo sapiens, UniProt P48736); assay: Inhibition of PIK3Cg
[31] = target: Protein kinase C beta type (Homo sapiens, UniProt P05771); assay: Inhibition of PRKCB
[32] = target: Proto-oncogene tyrosine-protein kinase Src (Homo sapiens, UniProt P12931); assay: Inhibition of SRC
Mus musculus = assay: Antiarthritic activity against collagen-induced arthritis mouse model assessed as inhibition of disease progression at 10 mg/kg, po BID for 14 days; assay type: functional; conditions: 336 h
Cytochrome P450 2C9 = Cytochrome P450 2C9 (Homo sapiens, UniProt P11712); assay: Inhibition of CYP2C9 at >20 uM; assay type: ADME
[33] = target: Dual specificity protein kinase CLK1 (Homo sapiens, UniProt P49759); assay: Inhibition of CLK1
[34] = target: Cyclin-G-associated kinase (Homo sapiens, UniProt O14976); assay: Inhibition of GAK
Scaffold protein ILK = Scaffold protein ILK (Homo sapiens, UniProt Q13418); assay: Inhibition of ILK
[35] = target: Mitogen-activated protein kinase kinase kinase 20 (Homo sapiens, UniProt Q9NYL2); assay: Inhibition of ZAK
Activin receptor type-2B = Activin receptor type-2B (Homo sapiens, UniProt Q13705); assay: Inhibition of ACVR2B
[36] = target: Tyrosine-protein kinase JAK2 (Homo sapiens, UniProt O60674); assay: Inhibition of JAK2
Chain of Tyrosine-protein kinase JAK2 (O60674 whole entry): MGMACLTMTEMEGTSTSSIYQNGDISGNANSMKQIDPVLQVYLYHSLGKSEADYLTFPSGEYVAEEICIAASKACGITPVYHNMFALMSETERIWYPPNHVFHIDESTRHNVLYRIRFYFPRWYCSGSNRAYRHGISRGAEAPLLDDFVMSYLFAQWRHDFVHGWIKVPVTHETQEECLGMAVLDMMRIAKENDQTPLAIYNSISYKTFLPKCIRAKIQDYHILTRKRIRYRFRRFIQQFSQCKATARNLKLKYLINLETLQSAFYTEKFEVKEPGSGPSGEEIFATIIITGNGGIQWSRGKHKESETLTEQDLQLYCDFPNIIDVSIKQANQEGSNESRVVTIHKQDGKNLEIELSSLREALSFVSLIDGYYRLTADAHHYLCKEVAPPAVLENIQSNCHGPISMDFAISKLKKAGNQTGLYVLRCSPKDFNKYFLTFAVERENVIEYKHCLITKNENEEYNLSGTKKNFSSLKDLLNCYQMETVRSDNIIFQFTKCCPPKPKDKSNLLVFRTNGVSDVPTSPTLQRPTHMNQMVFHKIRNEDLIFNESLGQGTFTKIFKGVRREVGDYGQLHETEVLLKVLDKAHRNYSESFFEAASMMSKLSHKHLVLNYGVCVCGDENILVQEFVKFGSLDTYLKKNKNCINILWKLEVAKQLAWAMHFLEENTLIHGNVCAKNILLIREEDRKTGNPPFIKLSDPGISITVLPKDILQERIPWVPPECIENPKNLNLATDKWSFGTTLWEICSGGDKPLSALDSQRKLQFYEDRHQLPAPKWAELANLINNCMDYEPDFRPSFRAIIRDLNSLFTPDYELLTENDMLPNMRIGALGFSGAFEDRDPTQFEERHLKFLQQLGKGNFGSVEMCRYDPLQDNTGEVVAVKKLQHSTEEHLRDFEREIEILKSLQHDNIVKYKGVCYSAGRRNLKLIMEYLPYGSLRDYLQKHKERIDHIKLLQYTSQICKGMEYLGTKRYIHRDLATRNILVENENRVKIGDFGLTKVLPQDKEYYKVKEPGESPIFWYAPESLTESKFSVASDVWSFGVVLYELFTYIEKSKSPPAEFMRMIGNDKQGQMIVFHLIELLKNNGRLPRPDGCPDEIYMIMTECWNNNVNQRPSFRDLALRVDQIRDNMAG

Cytochrome P450 3A4 = Cytochrome P450 3A4 (Homo sapiens, UniProt P08684); assay: Inhibition of CYP3A4 at >20 uM; assay type: ADME
[37] = target: Cyclin-dependent kinase 2 (Homo sapiens, UniProt P24941); assay: Inhibition of CDK2
[38] = target: Receptor-interacting serine/threonine-protein kinase 3 (Homo sapiens, UniProt Q9Y572); assay: Inhibition of RIPK3
[39] = target: Dual specificity testis-specific protein kinase 2 (Homo sapiens, UniProt Q96S53); assay: Inhibition of TESK2
[40] = target: Membrane-associated tyrosine- and threonine-specific cdc2-inhibitory kinase (Homo sapiens, UniProt Q99640); assay: Inhibition of PKMYT1
[41] = target: Tyrosine-protein kinase ABL1 (Homo sapiens, UniProt P00519); assay: Inhibition of ABL1
[42] = target: Mitogen-activated protein kinase kinase kinase kinase 1 (Homo sapiens, UniProt Q92918); assay: Inhibition of MAP4K1
[43] = target: Tyrosine-protein kinase Fer (Homo sapiens, UniProt P16591); assay: Inhibition of FER
[44] = target: 3-phosphoinositide-dependent protein kinase 1 (Homo sapiens, UniProt O15530); assay: Inhibition of PDPK1

IC50 [1]: > 10 µM
IC50 [2]: > 10 µM
IC50 [3]: > 10 µM
IC50 (Ephrin type-B receptor 2): > 10 µM
IC50 [4]: > 10 µM
IC50 [5]: > 10 µM
IC50 [6]: > 10 µM
IC50 (Ephrin type-A receptor 2): > 10 µM
Cmax [7]: 2.5 µM
IC50 [8]: > 10 µM
IC50 [9]: > 10 µM
IC50 (LIM domain kinase 1): > 10 µM
IC50 [10]: > 10 µM
IC50 [11]: > 10 µM
IC50 [12]: > 10 µM
IC50 (Activin receptor type-2A): > 10 µM
IC50 [13]: 2.45 µM
inhibition (INH) (Cytochrome P450 2C19): Active
clearance [14]: 1.6 mL/min/kg
IC50 [15]: > 10 µM
Cmax [16]: 10.2 µM
IC50 [17]: > 5.89 µM
Vd [18]: 1.3 L/kg
IC50 [19]: > 10 µM
IC50 [20]: > 10 µM
IC50 [21]: > 10 µM
IC50 [22]: > 10 µM
IC50 [23]: > 10 µM
IC50 [24]: > 10 µM
IC50 [25]: > 10 µM
IC50 [26]: > 10 µM
IC50 [27]: > 10 µM
IC50 [28]: > 10 µM
IC50 [29]: > 10 µM
IC50 [30]: 0.0245 µM
IC50 [31]: > 10 µM
IC50 [32]: > 10 µM
inhibition (INH) (Cytochrome P450 2C9): Active
IC50 [33]: > 10 µM
IC50 [34]: > 10 µM
IC50 (Scaffold protein ILK): > 10 µM
IC50 [35]: > 10 µM
IC50 (Activin receptor type-2B): > 10 µM
IC50 [36]: > 10 µM
inhibition (INH) (Cytochrome P450 3A4): Active
IC50 [37]: > 10 µM
IC50 [38]: > 10 µM
IC50 [39]: > 10 µM
IC50 [40]: > 10 µM
IC50 [41]: > 10 µM
IC50 [42]: > 10 µM
IC50 [43]: > 10 µM
IC50 [44]: > 10 µM
Compound: CC(C)(C)NS(=O)(=O)c1cncc(-c2ccn3nc(N)nc3c2)c1
inhibition in vivo at 10 mg/kg (Mus musculus): 46%
